Experimental data: patent publication US6515112B2, “Cores for technetium radiopharmaceuticals” (Amersham PLC, priority 1989, dated 2003)

Key:
[1] = Solubility in solvents (observation); type: physicochemical; conditions: 99Tc complex, organic solvents
[2] = Stability to air and moisture (observation); type: physicochemical; conditions: 99Tc complex, isolated solid
[3] = Animal biodistribution studies of 99mTc complexes in rats; type: in vivo, Male Sprague Dawley rats; parameters: Heart / Blood / Muscle / Lung / Liver / Kidney / Bladder & Urine / Brain: unit not given here; conditions: i.v. tail vein
Experimental: Complex Preparation: 20-25 μl of hydrazine was added to 2 cm^3 of absolute ethanol, then ^99mTcO4^−(0.2-3.0 GBq) and 10 mg of ligand were added to the solution. This mixture was heated to 120° C. for 30-60 minutes, cooled to room temperature and analyzed. For biodistribution studies the total volume of he preparation was made up to 5 cm^3 by the addition of sterile saline solution.
Animal Biodistribution Studies: Six Male Sprague Dawley rats were infected while under light ether anaesthesia with 0.1 cm^3 of preparation (i.v., tail vein) and half were sacrificed by cervical dislocation while under ether anaesthesia at the appropriate time interval post-infection and dissected. Organs were weighed and their activities measured in an ionisation chamber. For the purposes of calculations blood was assumed to constitute 5.8% of the total body weight, muscle was assumed to be 43% and the lungs were assumed to weigh 1 g.

Molecule | solubility [1] | stability to air / moisture [2] | Bladder & Urine ([3]; Time P. I. 2) | Blood ([3]; Time P. I. 2) | Heart ([3]; Time P. I. 2) | Kidney ([3]; Time P. I. 2) | Liver ([3]; Time P. I. 2) | Lung ([3]; Time P. I. 2) | Muscle ([3]; Time P. I. 2) | Bladder & Urine ([3]; Time P. I. 60) | Blood ([3]; Time P. I. 60) | Heart ([3]; Time P. I. 60) | Kidney ([3]; Time P. I. 60) | Liver ([3]; Time P. I. 60) | Lung ([3]; Time P. I. 60) | Muscle ([3]; Time P. I. 60) | S. I. ([3]; Time P. I. 60) | also measured
[Cl][Tc]([N]=Nc1ccccc1)([N]=Nc1ccccc1)([PH](c1ccccc1)(c1ccccc1)c1ccccc1)[PH](c1ccccc1)(c1ccccc1)c1ccccc1 [[TcCl(NNPh)2(PPh3)2], [Tc(NNPh)2Cl(PPh3)2]] | somewhat insoluble |  |  |  |  |  |  |  |  |  |  |  |  |  |  |  |  | solubility ([1]; listed as Tc(NNPh)2Cl(PPh3)2): only partially soluble in halogenated solvents and insoluble in alcohols
[N]#[Tc]([Cl])([Cl])([P](c1ccccc1)(c1ccccc1)c1ccccc1)[P](c1ccccc1)(c1ccccc1)c1ccccc1 [Example 7, TcNCl2(Ph3)2] | quite soluble in CH2Cl2 and insoluble in ether, petrol and alcohols | air-stable |  |  |  |  |  |  |  |  |  |  |  |  |  |  |  | 
Clc1ccc(N=[N][Tc]([Cl])([N]=Nc2ccc(Cl)cc2)([PH](c2ccccc2)(c2ccccc2)c2ccccc2)[PH](c2ccccc2)(c2ccccc2)c2ccccc2)cc1 [Complex 9, [TcCl(NNC6H4Cl)2(PPh3)2]] | reasonably soluble | air-stable |  |  |  |  |  |  |  |  |  |  |  |  |  |  |  | 
CCCC[N+](CCCC)(CCCC)CCCC.Cc1ccc([N]=[Tc-]([Br])([Br])([Br])[Br])cc1 [Complex 2, Tetrabutylammonium(1+)tetrabromo(p-tolylimido) technetate (V) (1−)] |  | quite sensitive to adventitious moisture |  |  |  |  |  |  |  |  |  |  |  |  |  |  |  | 
CCOCC(COCC)(CP(C)C)CP(C)C (99mTc complex, metal not drawn) [PL42] |  |  | 0.06 | 28.6 | 1.22 | 5.35 | 22.8 | 2.56 | 18.1 | 2.61 | 8.99 | 1.19 | 3.52 | 14.7 | 1.57 | 21.3 | 31.8 | H/Bl ([3]; Time P. I. 2): 0.59; H/Li ([3]; Time P. I. 2): 0.73; S. I. ([3]; Time P. I. 2): 7.66; H/Bl ([3]; Time P. I. 60): 2.13; H/Li ([3]; Time P. I. 60): 1.12
CN([N]=[Tc]([Cl])([Cl])([Cl])([P](c1ccccc1)(c1ccccc1)c1ccccc1)[P](c1ccccc1)(c1ccccc1)c1ccccc1)c1ccccc1 [Example 10, TcNNPhMe(PPh3)2Cl3] | reasonably soluble | air-stable |  |  |  |  |  |  |  |  |  |  |  |  |  |  |  | 
COCCC(CCOC)(CP(C)C)CP(C)C (99mTc complex, metal not drawn) [PL50] |  |  | 0.09 | 4.38 | 0.83 | 12.0 | 34.8 | 1.02 | 18.7 | 6.76 | 0.42 | 0.65 | 6.81 | 4.35 | 0.43 | 14.9 | 57.9 | H/Bl ([3]; Time P. I. 2): 2.68; H/Li ([3]; Time P. I. 2): 0.31; S. I. ([3]; Time P. I. 2): 12.8; H/Bl ([3]; Time P. I. 60): 22.2; H/Li ([3]; Time P. I. 60): 1.27
CP(C)COCP(C)C (99mTc complex, metal not drawn) [PL28] |  |  | 0.11 | 4.18 | 1.12 | 9.41 | 17.8 | 1.18 | 30.2 | 10.9 | 0.46 | 0.65 | 5.90 | 5.95 | 0.62 | 27.4 | 39.6 | Brain ([3]; Time P. I. 2): 0.04; Brain ([3]; Time P. I. 60): 0.02
[TC(NNC6H4Cl)2(N2S2)]x [Complex 17] | too insoluble for satisfactory analysis by NMR |  |  |  |  |  |  |  |  |  |  |  |  |  |  |  |  | 
CCCC[N+](CCCC)(CCCC)CCCC.Cc1ccc([N]=[Tc-]([Cl])([Cl])([Cl])[Cl])cc1 [Complex 1, Tetrabutylammonium(1+)tetrachloro(p-tolylimido) technetate (V) (1−)] |  | quite sensitive to adventitious moisture |  |  |  |  |  |  |  |  |  |  |  |  |  |  |  | 
[Tc^III(NNC6H4NO2) (Cl(dmpe)2]^+ |  |  | 0.08 | 5.68 | 1.15 | 9.47 | 22.4 | 2.27 | 26.2 | 7.28 | 0.92 | 0.67 | 9.47 | 12.3 | 1.04 | 16.8 | 33.8 | Brain ([3]; Time P. I. 2): 0.12; H/Bl ([3]; Time P. I. 2): 3.00; H/Li ([3]; Time P. I. 2): 0.72; S. I. ([3]; Time P. I. 2): 13.0; Brain ([3]; Time P. I. 60): 0.06; H/Bl ([3]; Time P. I. 60): 11.0; H/Li ([3]; Time P. I. 60): 0.76
[TcN(dppe)2Cl][PF6] [Example 8] | quite soluble in CH2Cl2 and insoluble in ether, petrol and alcohols | air-stable |  |  |  |  |  |  |  |  |  |  |  |  |  |  |  | 
COCCOCC(COCCOC)(CP(C)C)CP(C)C [PL43] |  |  | 0.16 | 21.5 | 0.55 | 9.19 | 21.4 | 1.47 | 21.7 | 25.4 | 1.14 | 0.26 | 2.32 | 9.08 | 0.22 | 10.9 | 45.6 | H/Bl ([3]; Time P. I. 2): 0.41; H/Li ([3]; Time P. I. 2): 0.38; S. I. ([3]; Time P. I. 2): 8.6; H/Bl ([3]; Time P. I. 60): 3.83; H/Li ([3]; Time P. I. 60): 0.40
O=C1[O][Tc]([Cl])([Cl])([P+](c2ccccc2)(c2ccccc2)c2ccccc2)([P+](c2ccccc2)(c2ccccc2)c2ccccc2)=[N]c2ccccc21 [Complex 18, [TcCl2(NC6H4CO2)(PPh3)2]] | soluble in DMF and CH2Cl2 |  |  |  |  |  |  |  |  |  |  |  |  |  |  |  |  | 
[Tc(NC6H4Z)Cl(dppe)2] (BPh4) Z═CH3 [Complex 6] | quite soluble in CH2Cl2 and insoluble in ether, petrol and alcohols | air-stable |  |  |  |  |  |  |  |  |  |  |  |  |  |  |  | 
